Counter-ions that a name gives are not always drawn. Like-named read-outs stand apart in the source and are kept apart here.

Usually IC50 stands for the concentration at which inhibition is half-maximal.

For test [1], the system named is P. falciparum strain D6. The experiment in a line: [3H]-hypoxanthine growth inhibition assay, P. falciparum D6. It is filed as cell-based. The note with it: Plasmodium falciparum. As for the experimental part: (§1) The potential for antimalarial activity against Plasmodium falciparum was determined by measuring the incorporation of tritiated hypoxanthine into parasitized red blood cells.
(§2) Stock solutions of the test compounds and the reference drug chloroquine (CQ) (Sigma Chemicals C-6628, Lot #059H0919) were prepared in silanized glass vials with AquaSil™ (Pierce, USA) to minimize absorption of the compounds to glassware. All test compounds were dissolved in DMSO (Sigma Cat No. #D8418) to 1 mM concentration, whereas CQ was dissolved in 50% methanol at a concentration of 1.6 mg/ml (base). Stock solutions were stored at −20° C.
(§3) The P. falciparum laboratory adapted strains utilized in this project (Table 1) were in vitro cultured and routinely maintained in RPMI-1640-LPLF complete medium, which contained low concentrations of para-amino benzoic acid (0.0005 mg/L) and folic acid (0.01 mg/L).
(§4) The low concentration of folic acid in RPMI-1640-LPLF prevents inhibition of the compound if its activity targets the parasite's folate metabolic pathway. Parasites were cultured in human red blood cells (RBCs) in vitro at 37° C. in special gas mixture (5% O2, 5% CO2 and 90% N2) as described Trager and Jensen (1979 Science 193:673-675).
(§5) Base cultivation medium consisted of 10.4 g/L RPMI-1640-LPLF powder (Gibco BRL), 5.97 g/L HEPES buffer (MP Biomedicals, USA), 2.0 g/L D-glucose (BDH chemicals, Australia), 0.05 g/L hypoxanthine (Sigma, USA) and 40 mg/L gentamycin (Pfizer, Australia). The pH of the medium was adjusted to 6.9 and the solution was filtered using 0.2 μm pore size (AcroCap, Gelman Science, USA). Complete medium was prepared by adding sodium bicarbonate solution (final concentration, 0.21%) and drug-free heat-inactivated human plasma, pooled from various blood types, obtained from the Australian Red Cross Blood Service (Brisbane) (final concentration, 10%) to the base RPMI-1640-LPLF. For [^3H]-hypoxanthine inhibition growth assay, RPMI-1640-LPLF complete medium which lacked [^3H]-hypoxanthine ([^3H]-RPMI-1640-LPLF) was used to prevent uptake of hypoxanthine by parasites, as radioactive hypoxanthine uptake is measured as a surrogate marker of growth. All complete medium was used within three days of preparation. See DE (Para) SOP 002 for methodology.
(§6) Red blood cells (RBC) were required for P. falciparum parasites to proliferate in vitro. 0 (Rh+) type blood was obtained from the Australian Red Cross Blood Service. The RBC were washed twice in phosphate-buffered saline (PBS) and once in [^3H]-RPMI-1640-LPLF complete medium by centrifugation at 1,500×g for 5 min. Following the final wash, the haematocrit was measured as the percent of RBC to total culture volume. The haematocrit was adjusted to 50% by removing or adding [^3H]-RPMI-LPLF complete medium. See DE (Para) SOP 003 for methodology.
(§7) All P. falciparum strains were grown in RPMI-1640-LPLF complete medium at 4% haematocrit and 1% to 8% parasitaemia at 37° C. in sealed flasks in a gas mixture of 5% O2, 5% CO2 and 90% N2 (BOC Gases, Brisbane, Australia). For drug susceptibility assays cultures were routinely synchronized when the majority of parasites (>85%) were at early trophozoite (ring) stage. Synchronization involved removing the more mature erythrocytic parasite stages by lysis, resulting in the retention only of early trophozoite (ring) stages. Synchronization was performed by re-suspending the infected red blood cell (iRBC) pellet in 5 to 10 times its volume of 5% D-sorbitol (Bacto Laboratories Pty. Ltd., Australia) for 5 min (Lambros and Vanderberg, 1979 J Parasitol 65: 418-420). The mixture was centrifuged (1,500 rpm for 5 min) and the supernatant removed. The iRBC were washed twice using PBS buffer and once using [^3H]-RPMI-LPLF plain medium. Following synchronization, a new culture was prepared with an initial parasitaemia of 1% in RPMI-LPLF complete medium. See DE (Para) SOP 008 for methodology.

Test [2] has as its system P. falciparum strain W2. The experiment in a line: [3H]-hypoxanthine growth inhibition assay, P. falciparum W2. It is filed as cell-based. The note with it: Plasmodium falciparum. As for the experimental part:
as §1, §2, §3, §4, §5, §6, §7

The mark [3] stands for this setting: P. falciparum D6 (sensitive to chloroquine and pyrimethamine), [3H]-hypoxanthine incorporation, read-out: D6 IC50.
Setting [4] is: P. falciparum W2 (resistant to chloroquine and pyrimethamine), [3H]-hypoxanthine incorporation, read-out: W2 IC50.

Take `CC(C)(C)NCc1cc(C(C)(C)C)cc(-c2nccc(C(F)(F)F)n2)c1O` [Example 46, 4-(tert-Butyl)-2-((tert-butylamino)methyl)-6-(4-(trifluoromethyl)pyrimidin-2-yl)phenol hydrochloride]: the values for the IC50 in test [1] (setting [3]) and in test [2] (setting [4]) were 2100 nM and 1970 nM, respectively.

Consider `CCN(CC)Cc1cc(C(C)(C)C)cc(-c2ccc(C(F)(F)F)nc2)c1O` [Example 47, 4-(tert-Butyl)-2-((diethylamino)methyl)-6-(6-(trifluoromethyl)pyridin-3-yl)phenol hydrochloride], for which the IC50 amounted to 43 nM in test [1] (setting [3]) and 31 nM in test [2] (setting [4]).

With `CC(C)NCc1cc(C(C)(C)C)cc(-c2ccc(C(F)(F)F)nc2)c1O` [Example 48, 4-(tert-Butyl)-2-((isopropylamino)methyl)-6-(6-(trifluoromethyl)pyridin-3-yl)phenol hydrochloride], the IC50 in test [1] (setting [3]) and in test [2] (setting [4]) was 5 nM each time.

As to `CC(C)(C)c1cc(CN2CCOCC2)c(O)c(-c2ccc(C(F)(F)F)nc2)c1` [Example 49, 4-(tert-Butyl)-2-(morpholinomethyl)-6-(6-(trifluoromethyl)pyridin-3-yl)phenol hydrochloride], the IC50 in test [1] (setting [3]) amounted to 244 nM; in test [2] (setting [4]), 214 nM.

For `CN1CCN(Cc2cc(C(C)(C)C)cc(-c3ccc(C(F)(F)F)nc3)c2O)CC1` [Example 50, 4-(tert-Butyl)-2-((4-methylpiperazin-1-yl)methyl)-6-(6-(trifluoromethyl)pyridin-3-yl)phenol dihydrochloride], the IC50 is 297 nM in test [1] (D6, read-out: D6 IC50) and 160 nM in test [2] (W2, read-out: W2 IC50).

In the case of `CC(C)(C)c1cc(CN2CCCCC2)c(O)c(-c2ccc(C(F)(F)F)nc2)c1` [Example 51, 4-(tert-Butyl)-2-(piperidin-1-ylmethyl)-6-(6-(trifluoromethyl)pyridin-3-yl)phenol hydrochloride], the IC50 in test [1] (setting [3]) came out at 46 nM; in test [2] (setting [4]), 24 nM.

With `CC(C)(C)c1cc(CN2CCCC2)c(O)c(-c2ccc(C(F)(F)F)nc2)c1` [Example 52, 4-(tert-Butyl)-2-(pyrrolidin-1-ylmethyl)-6-(6-(trifluoromethyl)pyridin-3-yl)phenol hydrochloride], the figures for the IC50 in test [1] (setting [3]) and in test [2] (setting [4]) were 23 nM and 14 nM, respectively.

Turning to `CC(=O)N1CCN(Cc2cc(C(C)(C)C)cc(-c3ccc(C(F)(F)F)nc3)c2O)CC1` [Example 53, 1-(4-(5-(tert-Butyl)-2-hydroxy-3-(6-(trifluoromethyl)pyridin-3-yl)benzyl)piperazin-1-yl)ethanone hydrochloride], the IC50 was 3660 nM in test [1] (setting [3]) and 2290 nM in test [2] (setting [4]).

Consider `CC(C)(C)NCc1cc(C(C)(C)C)cc(-c2ncc(C(F)(F)F)cn2)c1O` [Example 54, 4-(tert-Butyl)-2-((tert-butylamino)methyl)-6-(5-(trifluoromethyl)pyrimidin-2-yl)phenol hydrochloride], for which the IC50 was determined as 6320 nM in test [1] (setting [3]) and 6120 nM in test [2] (setting [4]).

Consider `CC(C)(C)NCc1cc(-c2ccc(S(C)(=O)=O)cc2)cc(-c2ccc(C(F)(F)F)nc2)c1O` [Example 55, 3-((tert-Butylamino)methyl)-4′-(methylsulfonyl)-5-(6-(trifluoromethyl)pyridin-3-yl)-[1,1′-biphenyl]-4-ol hydrochloride], for which the IC50 in test [1] (setting [3]) is 2500 nM; in test [2] (setting [4]), 4000 nM.

Regarding `CC(C)(C)NCc1cc(C(C)(C)C)cc(-c2ccc(C(F)(F)F)nn2)c1O` [Example 56, 4-(tert-Butyl)-2-((tert-butylamino)methyl)-6-(6-(trifluoromethyl)pyridazin-3-yl)phenol hydrochloride], the IC50 in test [1] (setting [3]) was found to be 104 nM; in test [2] (setting [4]) it was 117 nM.

Turning to `CC(C)(C)c1cc(CNCCC(F)(F)F)c(O)c(-c2ccc(C(F)(F)F)nc2)c1` [Example 57, 4-(tert-Butyl)-2-(6-(trifluoromethyl)pyridin-3-yl)-6-(((3,3,3-trifluoropropyl)amino)methyl)phenol hydrochloride], the IC50 in test [1] (setting [3]) stood at 34 nM; in test [2] (setting [4]), 29 nM.

Take `CCN(CC)CCCC(C)NCc1cc(C(C)(C)C)cc(-c2ccc(C(F)(F)F)nc2)c1O` (centres unmarked) [Example 59, 4-(tert-Butyl)-2-(((5-(diethylamino)pentan-2-yl)amino)methyl)-6-(6-(trifluoromethyl)pyridin-3-yl)phenol dihydrochloride]: the IC50 worked out at 87 nM in test [1] (D6, read-out: D6 IC50) and 97 nM in test [2] (W2, read-out: W2 IC50).

`CC(C)(C)NCCCNCc1cc(C(C)(C)C)cc(-c2ccc(C(F)(F)F)nc2)c1O` [Example 60, 4-(tert-Butyl)-2-(((3-(tert-butylamino)propyl)amino)methyl)-6-(6-(trifluoromethyl)pyridin-3-yl)phenol dihydrochloride]: the IC50 came to 134 nM in test [1] (D6, read-out: D6 IC50) and 175 nM in test [2] (W2, read-out: W2 IC50).

Consider `CCN(CC)CCCNCc1cc(C(C)(C)C)cc(-c2ccc(C(F)(F)F)nc2)c1O` [Example 61, 4-(tert-Butyl)-2-(((3-(diethylamino)propyl)amino)methyl)-6-(6-(trifluoromethyl)pyridin-3-yl)phenol dihydrochloride], for which the IC50 in test [1] (D6, read-out: D6 IC50) was 44 nM; in test [2] (W2, read-out: W2 IC50), 32 nM.

Take `CC(C)(C)c1cc(CNCCCN)c(O)c(-c2ccc(C(F)(F)F)nc2)c1` [Example 62, 2-(((3-Aminopropyl)amino)methyl)-4-(tert-butyl)-6-(6-(trifluoromethyl)pyridin-3-yl)phenol dihydrochloride]: the IC50 in test [1] (D6, read-out: D6 IC50) came out at 133 nM; in test [2] (W2, read-out: W2 IC50), 223 nM.

With `CCN(CC)CCNCc1cc(C(C)(C)C)cc(-c2ccc(C(F)(F)F)nc2)c1O` [Example 63, 4-(tert-Butyl)-2-(((2-(diethylamino)ethyl)amino)methyl)-6-(6-(trifluoromethyl)pyridin-3-yl)phenol dihydrochloride], the IC50 in test [1] (D6, read-out: D6 IC50) is 9 nM; in test [2] (W2, read-out: W2 IC50) it was 7 nM.

With `CC(C)(C)c1cc(CN)c(O)c(-c2ccc(C(F)(F)F)nc2)c1` [Example 64, 2-(Aminomethyl)-4-(tert-butyl)-6-(6-(trifluoromethyl)pyridin-3-yl)phenol hydrochloride], the results for the IC50 in test [1] (setting [3]) and in test [2] (setting [4]) were 216 nM and 202 nM, respectively.

Consider `CC(CN)NCc1cc(C(C)(C)C)cc(-c2ccc(C(F)(F)F)nc2)c1O` (centres unmarked) [Example 65, 2-(((1-Aminopropan-2-yl)amino)methyl)-4-(tert-butyl)-6-(6-(trifluoromethyl)pyridin-3-yl)phenol dihydrochloride], for which the IC50 in test [1] (D6, read-out: D6 IC50) is 394 nM; in test [2] (W2, read-out: W2 IC50), 210 nM.

As for `CC(C)(C)NCc1cc(-c2cccc(F)c2)cc(-c2ccc(C(F)(F)F)nc2)c1O` [Example 67, 3-((tert-Butylamino)methyl)-3′-fluoro-5-(6-(trifluoromethyl)pyridin-3-yl)-[1,1′-biphenyl]-4-ol hydrochloride], the IC50 in test [1] (setting [3]) was 100 nM; in test [2] (setting [4]), 53 nM.

Take `CC(C)(C)NCc1cc(F)cc(-c2ccc(C(F)(F)F)nc2)c1O` [Example 68, 2-((tert-Butylamino)methyl)-4-fluoro-6-(6-(trifluoromethyl)pyridin-3-yl)phenol hydrochloride]: the IC50 in test [1] (setting [3]) came to 221 nM; in test [2] (setting [4]), 126 nM.

With `CC(C)(C)NCc1cc(Cl)cc(-c2ccc(C(F)(F)F)nc2)c1O` [Example 69, 2-((tert-Butylamino)methyl)-4-chloro-6-(6-(trifluoromethyl)pyridin-3-yl)phenol hydrochloride], the IC50 in test [1] (setting [3]) stood at 239 nM; in test [2] (setting [4]), 130 nM.

The record behind these values is patent US9409893B2, “Heteroaryl derivatives and uses thereof” (Jacobus Pharmaceutical Company, Inc., priority 2012, dated 2016).
